Data published in US12371454B2, “Cyclic peptide compound having Kras inhibitory action” (priority 2019, dated 2025).
Starred links: 1 amine or outer side, 2 acyl side, 3 side chain; linkers in the order of their positions; H or OH if unused. Positions of bridges follow the written chain, without caps; N, C: chain ends. Non-standard residues stand in square brackets, D forms with d. Residues, ends and D or L forms follow the SMILES beside them. *: point of attachment. hPhe(3-Cl-4-CF3) = N[C@@H](CCc1ccc(C(F)(F)F)c(Cl)c1)C(=O)O; X48 = O=C([C@H](CCc1ccc(S(F)(F)(F)(F)F)cc1)N[*:1])[*:2]; NMePhe(4-CF3) = CN[C@@H](Cc1ccc(C(F)(F)F)cc1)C(=O)O; hPhe(4-CF3) = N[C@@H](CCc1ccc(C(F)(F)F)cc1)C(=O)O; NMePhe(4-Cl) = CN[C@@H](Cc1ccc(Cl)cc1)C(=O)O; NMePhe(4-Me) = CN[C@@H](Cc1ccc(C)cc1)C(=O)O; NMePhe(2-Cl) = CN[C@@H](Cc1ccccc1Cl)C(=O)O; NMedβ3hAla = C[C@H](CC(=O)[*:2])N(C)[*:1]; NMeGly(cPent) = CN[C@H](C(=O)O)C1CCCC1; Phe(3-I) = N[C@@H](Cc1cccc(I)c1)C(=O)O; Pro(4,4-F2) = O=C(O)[C@@H]1CC(F)(F)CN1; NMeCha = CN[C@@H](CC1CCCCC1)C(=O)O; NMeChg = CN[C@H](C(=O)O)C1CCCCC1; NMeF = CN[C@@H](Cc1ccccc1)C(=O)O; NMeI = CC[C@H](C)[C@H](NC)C(=O)O; NMeD = CN[C@@H](CC(=O)O)C(=O)O; CH2CONHtBu = CC(C)(C)NC(=O)C*; NMeL = CN[C@@H](CC(C)C)C(=O)O; NMeV = CN[C@H](C(=O)O)C(C)C; d(β3hA) = C[C@@H](N)CC(=O)O; NMeS = CN[C@@H](CO)C(=O)O; NMeA = CN[C@@H](C)C(=O)O; NMeAib = CNC(C)(C)C(=O)O; Piperidide = C1CCN(*)CC1; Ac5c = NC1(C(=O)O)CCCC1; Aze = O=C(O)[C@@H]1CCN1; Aib = CC(C)(N)C(=O)O; βAla = NCCC(=O)O; Sar = CNCC(=O)O

Molecular target: T1, Kras and SOS1 (biotin-tagged human Kras loaded with GDP, His-tagged human SOS1) (Homo sapiens, UniProt P01116, G12D)
T1 construct: made in house; host or cells: E. coli (stated for Kras only)
Experiment: Protein-protein interaction inhibition between Kras and SOS1 (KrasGl2D-SOS PPI) using AlphaScreen
Assay type: binding
Conditions: AlphaScreen; biotin-tagged human Kras loaded with GDP, His-tagged human SOS1; read-out: KRAS G12D-SOS PPI IC50
Outline: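 Binding between SOS1 and Kras is detected as bead-proximity luminescence: illuminate Ni-conjugated donors (680 nm), collect 520-620 nm emission from streptavidin-conjugated acceptors; Kras carries biotin and GDP loaded after purification, SOS1 carries a His tag.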

T1 sequence (P01116 1-188 isoform P01116-2 G12D): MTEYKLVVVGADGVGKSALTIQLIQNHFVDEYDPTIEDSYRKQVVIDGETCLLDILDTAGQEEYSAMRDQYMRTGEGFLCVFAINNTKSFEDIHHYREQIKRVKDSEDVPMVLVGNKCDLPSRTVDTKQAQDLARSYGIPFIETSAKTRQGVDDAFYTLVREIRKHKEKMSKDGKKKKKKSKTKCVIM

Structure (SMILES)	IC50
CC[C@H](C)[C@@H]1NC(=O)[C@H](C)N(C)C(=O)C[C@@H](C)NC(=O)[C@H](C(C)C)N(C)C(=O)[C@H](Cc2ccccc2)N(C)C(=O)[C@H](CC(C)C)N(C)C(=O)[C@H](CCc2ccc(C(F)(F)F)c(Cl)c2)NC(=O)CN(C)C(=O)[C@H](Cc2ccc(Cl)cc2)N(C)C(=O)[C@@H]2CCN2C(=O)CN(C)C1=O [Compound 994] (cyclo([Aze][NMePhe(4-Cl)][Sar][hPhe(3-Cl-4-CF3)][NMeL][NMeF][NMeV][d(β3hA)][NMeA]I[Sar]))	11 nM
CC[C@H](C)[C@@H]1NC(=O)[C@H](CC(C)C)N(C)C(=O)C[C@@H](C(=O)N2CCCCC2)N(C)C(=O)[C@H](C(C)C)N(C)C(=O)C2(CCCC2)NC(=O)[C@@H]2CCCN2C(=O)[C@H](CCc2ccc(C(F)(F)F)c(Cl)c2)NC(=O)CN(C)C(=O)[C@H](CC2CCCCC2)N(C)C(=O)[C@@H]2CCN2C(=O)[C@H](COCC(=O)NC(C)(C)C)N(C)C1=O [Compound 998] ([NMeL]I[NMeS](CH2CONHtBu)[Aze][NMeCha][Sar][hPhe(3-Cl-4-CF3)]P[Ac5c][NMeV][NMeD]-Piperidide; lactam N-11)	17 nM
CC[C@H](C)[C@@H]1NC(=O)[C@H](CC(C)C)N(C)C(=O)C[C@@H](C)N(C)C(=O)[C@H]([C@@H](C)CC)N(C)C(=O)C2(CCCC2)NC(=O)[C@@H]2CC(F)(F)CN2C(=O)[C@H](CCc2ccc(C(F)(F)F)c(Cl)c2)NC(=O)CN(C)C(=O)[C@H](Cc2ccc(C(F)(F)F)cc2)N(C)C(=O)CN(C)C(=O)CN(C)C1=O [Compound 1003] (cyclo([Ac5c][NMeI][NMedβ3hAla][NMeL]I[Sar][Sar][NMePhe(4-CF3)][Sar][hPhe(3-Cl-4-CF3)][Pro(4,4-F2)]))	8.4 nM
CC[C@H](C)[C@@H]1NC(=O)CCNC(=O)[C@H](Cc2ccccc2)N(C)C(=O)[C@H](C2CCCCC2)N(C)C(=O)C2(CCCC2)NC(=O)[C@@H]2CCCN2C(=O)[C@H](CCc2ccc(C(F)(F)F)c(Cl)c2)NC(=O)CN(C)C(=O)[C@H](CC2CCCCC2)N(C)C(=O)CN(C)C(=O)CN(C)C1=O [Compound 1007] (cyclo([Ac5c][NMeChg][NMeF][βAla]I[Sar][Sar][NMeCha][Sar][hPhe(3-Cl-4-CF3)]P))	13 nM
CC[C@H](C)[C@@H]1NC(=O)[C@H](CC(C)C)N(C)C(=O)C[C@@H](C(=O)N(C)C)N(C)C(=O)[C@H](C2CCCC2)N(C)C(=O)C2(CCCC2)NC(=O)[C@H](Cc2ccccc2Cl)N(C)C(=O)[C@H](CCc2ccc(C(F)(F)F)c(Cl)c2)NC(=O)CN(C)C(=O)[C@H](CC2CCCCC2)N(C)C(=O)[C@@H]2CCN2C(=O)[C@H](C)N(C)C1=O [Compound 1009] ([NMeL]I[NMeA][Aze][NMeCha][Sar][hPhe(3-Cl-4-CF3)][NMePhe(2-Cl)][Ac5c][NMeGly(cPent)][NMeD]-NMe2; lactam N-11)	43 nM
CC[C@H](C)[C@@H]1NC(=O)[C@H](CC(C)C)N(C)C(=O)C[C@@H](C)NC(=O)[C@H](CC(C)C)N(C)C(=O)C(C)(C)NC(=O)[C@@H]2CCCN2C(=O)[C@H](CCc2ccc(C(F)(F)F)cc2)NC(=O)CN(C)C(=O)[C@H](Cc2ccc(Cl)cc2)N(C)C(=O)CN(C)C(=O)CN(C)C1=O [Compound 1013] (cyclo([Aib][NMeL][d(β3hA)][NMeL]I[Sar][Sar][NMePhe(4-Cl)][Sar][hPhe(4-CF3)]P))	31 nM
CC[C@H](C)[C@@H]1NC(=O)[C@H](CC(C)C)N(C)C(=O)C[C@@H](C(=O)N2CCCCC2)N(C)C(=O)[C@H](CC(C)C)NC(=O)C(C)(C)N(C)C(=O)[C@H](Cc2ccccc2)NC(=O)[C@H](Cc2cccc(I)c2)NC(=O)CN(C)C(=O)[C@H](Cc2ccc(C)cc2)N(C)C(=O)[C@@H]2CCN2C(=O)[C@H](C)N(C)C1=O [Compound 1015] ([NMeL]I[NMeA][Aze][NMePhe(4-Me)][Sar][Phe(3-I)]F[NMeAib]L[NMeD]-Piperidide; lactam N-11)	18 nM
CC[C@H](C)[C@@H]1NC(=O)[C@H](CC(C)C)N(C)C(=O)C[C@@H](C)NC(=O)[C@H](C(C)C)N(C)C(=O)C2(CCCC2)NC(=O)[C@@H]2CCCN2C(=O)[C@H](CCc2ccc(C(F)(F)F)c(Cl)c2)NC(=O)CN(C)C(=O)[C@H](CC2CCCCC2)N(C)C(=O)CN(C)C(=O)[C@@H]2CCN2C1=O [Compound 1020] (cyclo([Ac5c][NMeV][d(β3hA)][NMeL]I[Aze][Sar][NMeCha][Sar][hPhe(3-Cl-4-CF3)]P))	51 nM
CC[C@H](C)[C@@H]1NC(=O)[C@H](CC(C)C)N(C)C(=O)C[C@@H](C)NC(=O)[C@H](CC(C)C)N(C)C(=O)C2(CCCC2)NC(=O)[C@@H]2CCCN2C(=O)[C@H](CCc2ccc(S(F)(F)(F)(F)F)cc2)NC(=O)CN(C)C(=O)[C@H](CC2CCCCC2)N(C)C(=O)CN(C)C(=O)CN(C)C1=O [Compound 1021] (cyclo([Ac5c][NMeL][d(β3hA)][NMeL]I[Sar][Sar][NMeCha][Sar][X48]P))	240 nM
